The target in data set [1] is PI3-kinase p110-alpha/p85-alpha (Homo sapiens, UniProt P42336). Nature of the data set: Inhibition of […]/p85 PI3-kinase (phosphatidylinositol 3-kinase). In kind it is protein-complex assay.
The nature of data set [2]: Partition coefficient (logP). In kind it is physicochemical. To be noted: octanol/water.
The test system of a further data set is MCF7. The data set is described as follows: Inhibition of MCF-7 (breast) cancer cell proliferation. To be noted: Homo sapiens. In kind it is functional, cell-based.
Another data set relates to NIH3T3. Nature of the data set: Inhibition of NIH3T3 cell proliferation. In kind it is functional, cell-based. To be noted: Mus musculus.
Data set [3] addresses Serine/threonine-protein kinase AKT (Homo sapiens, UniProt P31751+Q9Y243+P31749). Nature of the data set: Inhibition of Akt (proto-oncogenic serine/threonine) kinase. In kind it is protein assay.
The subject of another data set is HT-29. Nature of the data set: Inhibition of human colon carcinoma (HT-29) cell proliferation. Format: functional, cell-based.

Each structure is given as a SMILES string.

A word on the IC50: it is the concentration at which inhibition is half-maximal. In general, logP refers to the decadic logarithm of the partition coefficient of the neutral form, usually between octanol and water.

PI3-kinase p110-alpha/p85-alpha, sequence (P27986 whole entry): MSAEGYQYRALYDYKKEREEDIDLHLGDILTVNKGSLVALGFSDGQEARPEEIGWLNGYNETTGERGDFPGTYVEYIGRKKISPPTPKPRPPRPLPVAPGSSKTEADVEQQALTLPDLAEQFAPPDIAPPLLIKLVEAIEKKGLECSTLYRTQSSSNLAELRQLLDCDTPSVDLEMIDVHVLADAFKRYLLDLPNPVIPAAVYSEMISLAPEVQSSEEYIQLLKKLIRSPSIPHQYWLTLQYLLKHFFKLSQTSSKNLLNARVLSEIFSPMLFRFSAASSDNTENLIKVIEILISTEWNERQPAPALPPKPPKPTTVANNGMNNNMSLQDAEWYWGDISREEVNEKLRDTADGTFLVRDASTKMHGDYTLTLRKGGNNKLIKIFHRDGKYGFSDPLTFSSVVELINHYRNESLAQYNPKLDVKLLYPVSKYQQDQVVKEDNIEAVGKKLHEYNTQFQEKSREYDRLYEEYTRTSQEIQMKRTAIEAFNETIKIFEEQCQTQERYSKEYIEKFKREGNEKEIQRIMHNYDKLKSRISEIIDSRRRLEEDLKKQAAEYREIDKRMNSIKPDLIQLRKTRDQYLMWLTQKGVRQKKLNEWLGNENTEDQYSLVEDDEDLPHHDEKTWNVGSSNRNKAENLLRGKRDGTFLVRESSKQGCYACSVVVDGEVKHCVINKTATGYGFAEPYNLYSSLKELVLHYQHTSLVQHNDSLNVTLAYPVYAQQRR
PI3-kinase p110-alpha/p85-alpha, sequence (P42336 whole entry): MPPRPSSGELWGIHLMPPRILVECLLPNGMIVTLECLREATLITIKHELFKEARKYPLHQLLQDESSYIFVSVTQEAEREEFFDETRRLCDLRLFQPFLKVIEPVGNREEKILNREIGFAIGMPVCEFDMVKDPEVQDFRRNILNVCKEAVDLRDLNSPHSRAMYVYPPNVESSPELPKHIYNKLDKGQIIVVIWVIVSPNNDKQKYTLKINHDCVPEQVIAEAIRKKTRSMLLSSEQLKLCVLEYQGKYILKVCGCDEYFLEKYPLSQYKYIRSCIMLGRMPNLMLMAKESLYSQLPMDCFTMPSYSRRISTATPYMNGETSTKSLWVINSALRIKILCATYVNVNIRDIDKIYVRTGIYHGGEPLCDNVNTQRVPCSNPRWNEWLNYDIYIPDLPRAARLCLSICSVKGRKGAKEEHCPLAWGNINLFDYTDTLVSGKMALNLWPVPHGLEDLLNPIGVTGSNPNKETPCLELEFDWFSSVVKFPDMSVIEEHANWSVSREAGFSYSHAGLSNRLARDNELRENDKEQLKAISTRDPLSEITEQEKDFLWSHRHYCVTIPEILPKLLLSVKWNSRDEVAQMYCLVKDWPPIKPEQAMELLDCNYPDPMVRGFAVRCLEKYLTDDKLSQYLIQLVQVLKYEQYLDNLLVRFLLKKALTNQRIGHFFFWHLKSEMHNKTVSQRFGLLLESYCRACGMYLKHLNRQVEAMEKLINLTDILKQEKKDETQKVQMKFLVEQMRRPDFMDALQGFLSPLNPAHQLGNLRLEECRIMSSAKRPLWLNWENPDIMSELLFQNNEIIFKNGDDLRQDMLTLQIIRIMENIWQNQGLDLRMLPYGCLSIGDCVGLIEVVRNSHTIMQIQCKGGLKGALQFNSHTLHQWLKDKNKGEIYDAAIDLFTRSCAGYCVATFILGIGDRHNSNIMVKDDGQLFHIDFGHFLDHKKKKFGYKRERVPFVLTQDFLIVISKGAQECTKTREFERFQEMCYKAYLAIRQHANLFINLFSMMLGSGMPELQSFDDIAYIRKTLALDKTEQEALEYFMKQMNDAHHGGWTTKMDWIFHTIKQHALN

Regarding `CCCCCCCCCCCCCCCCCCOC[C@H](COP(=O)(O)OC1[C@@H](O)[C@@H](O)[C@H](O)[C@H](CO)[C@H]1O)n1ccnc1` (single isomer, unassigned), the IC50 was 7.9 µM in data set [1]; 2 µM in the data set on MCF7; 8.2 µM in the data set with NIH3T3; 20.5 µM in data set [3]; 6.5 µM with HT-29. Also, the lipophilicity (logP) in data set [2] turned out to be 3.22.
On to `CCCCCCCCCCCCCCCCCCOC[C@H](COP(=O)(O)OC1[C@H](O)C[C@@H](O)[C@H](O)[C@@H]1O)n1ccnc1` (single isomer, unassigned), for which the IC50 in data set [1] was determined as 14.5 µM; in the data set on MCF7, 6 µM; in the data set on NIH3T3, 6.5 µM; in data set [3] it was 37.5 µM; in the data set with HT-29 it was 15 µM.
In the case of `CCCCCCCCCCCCCCCCCCOC[C@H](COP(=O)(O)OC1[C@H](O)C[C@@H](O)[C@H](O)[C@@H]1O)OC` (single isomer, unassigned), the IC50 was found to be 14.8 µM in data set [1] and 4.5 µM in the data set with NIH3T3. Further, in data set [2], the log partition coefficient (logP) amounted to 4.44.
Regarding `CCCCCCCCCCCCCCCCCCOC[C@H](COC(=O)OC1[C@@H](O)[C@@H](O)[C@H](O)[C@H](CO)[C@H]1O)OC` (single isomer, unassigned), the half-inhibitory concentration (IC50) was 83 µM in data set [1]; 1.25 µM with MCF7; 2 µM with NIH3T3; 5 µM in data set [3]; 10 µM with HT-29.
The like results for `CCCCCCCCCCCCCCCCCCOC[C@H](COP(=O)(O)OC1[C@@H](O)[C@@H](O)[C@H](O)[C@H](CO)[C@H]1O)OC` (single isomer, unassigned) were, in that order, 31 µM, 5 µM, 2 µM, 7.8 µM and 4.5 µM.
As for `CCCCCCCCCCCCCCCCCCOC[C@H](COC(=O)OC1[C@@H](O)[C@@H](O)[C@H](O)[C@H](CO)[C@@H]1O)n1ccnc1` (single isomer, unassigned), the half-inhibitory concentration (IC50) came to 49.5 µM in data set [1]; 20 µM in the data set with MCF7; 11.5 µM in the data set with NIH3T3; 15 µM in data set [3]; 15 µM in the data set with HT-29.

Values taken from ChEMBL document CHEMBL1133999, “3-Deoxy-3-substituted-D-myo-inositol imidazolyl ether lipid phosphates and carbonate as inhibitors of the phosphatidylinositol 3-kinase pathway and cancer cell growth” (Bioorg Med Chem Lett, 2001).
